{
  "source": "patent US8716279B2",
  "about": "“Pharmaceutical compositions of clonazepam and method of use thereof” (Jazz Pharmaceuticals, Inc., priority 2006, dated 2014)",
  "assay": "Drug recovery, degradation and binding to nasal sheep mucosa",
  "type": "in vitro ADME",
  "procedure": "(i) Drug recovery, degradation and binding to nasal sheep mucosa: The effect of drug recovery, degradation and binding to sheep nasal mucosa was determined. Briefly, a known surface area (approx. 1 cm^2) of sheep nasal mucosa was added into a glass vial containing a known concentration (10 μg/mL) of each drug prepared in the receiver fluid (10% ethanol in pH 6 buffer). The content of the vial was allowed to equilibrate at 37° C. over a period of 48 h. At 24 h intervals, a sample was removed and assayed via HPLC. The percentage of drug recovered was calculated using Equation 4: % drug recovered=(drug concentration at t=Y/drug concentration at t=Z)×100 (Equation 4)\nwhere, Y=specific time point at 37° C. (in the presence of nasal sheep mucosa); and Z=specific time point at 37° C. (in the absence of nasal sheep mucosa).\nIn addition to the stability against heat degradation, the effect of drug binding or degradation in the presence of nasal sheep mucosa was also determined (Table 6).",
  "data": [
    {"smiles": "O=C1CN=C(c2ccccc2Cl)c2cc([N+](=O)[O-])ccc2N1", "note": "[Clonazepam, 5-(2-chlorophenyl)-1,3-dihydro-7-nitro-2H-1,4-benzodiazepin-2-one]", "values": [
      {"measurement": "degree of binding or degradation in the presence of nasal sheep mucosa", "setting": "37° C.", "value": "< 10", "unit": "%"},
      {"measurement": "drug recovered in the presence of nasal sheep mucosa", "setting": "37° C. over 48 h", "value": "greater than 95%"}
    ]}
  ]
}
